Data: patent US20200055839A1 (priority 2017, published 2020)
pEC50: −log10 of the molar value.

system: NL-RLuc virus; assay: Inhibition of HIV replication (NL-RLuc virus, luciferase readout in MT-2 cells); assay type: cell-based; conditions: Human immunodeficiency virus 1, MT2, 120 h, MT-2 cells infected with NL-RLuc virus, 5 days of incubation, 10% FBS, at least 2 experiments
Procedure, shortened: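 EC50 derived via median effect equation from at least 2 experiments, using luciferase expression as virus-growth readout. Replication-competent NL-RLuc reporter virus (nef partly replaced by Renilla luciferase) infected MT-2 cells with serial compound dilutions; 5-day incubation in RPMI 1640 plus 10% FBS.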

| Structure (SMILES) | pEC50 |
| --- | --- |
| COc1c(F)cc(-c2c(CNCC3CCOCC3)nc(Cl)c([C@H](OC(C)(C)C)C(=O)O)c2N2CCC(C)(C)CC2)cc1F [Example 203, (S)-2-(tert-Butoxy)-2-(2-chloro-5-(3,5-difluoro-4-methoxyphenyl)-4-(4,4-dimethylpiperidin-1-yl)-6-((((tetrahydro-2H-pyran-4-yl)methyl)amino)methyl)pyridin-3-yl)acetic acid] | 8.15 |
| COc1c(F)cc(-c2c(CN3CCC4(CCC4)CC3)nc(Cl)c([C@H](OC(C)(C)C)C(=O)O)c2N2CCC(C)(C)CC2)cc1F [Example 204] | 9.00 |
| COc1c(F)cc(-c2c(CO)nc(Cl)c([C@H](OC(C)(C)C)C(=O)O)c2N2CCC(C)(C)CC2)cc1F [Example 205, (S)-2-(tert-Butoxy)-2-(2-chloro-5-(3,5-difluoro-4-methoxyphenyl)-4-(4,4-dimethylpiperidin-1-yl)-6-(hydroxymethyl)pyridin-3-yl)acetic acid] | 8.22 |
| CC1(C)CCN(c2c(-c3ccc(OCCc4ccc(F)cc4)cc3)c(N)nc(Cl)c2[C@H](OC(C)(C)C)C(=O)O)CC1 [Example 206, (S)-2-(6-Amino-2-chloro-4-(4,4-dimethylpiperidin-1-yl)-5-(4-(4-fluorophenethoxy)phenyl)pyridin-3-yl)-2-(tert-butoxy)acetic acid] | 8.70 |
| CC1(C)CCN(c2c(-c3ccc(F)c(F)c3)c(CN3CCC4(CCC4)CC3)nc(Cl)c2[C@H](OC(C)(C)C)C(=O)O)CC1 [Example 207, (S)-2-(6-((7-Azaspiro[3.5]nonan-7-yl)methyl)-2-chloro-5-(3,4-difluorophenyl)-4-(4,4-dimethylpiperidin-1-yl)pyridin-3-yl)-2-(tert-butoxy)acetic acid] | 7.44 |
| CC1(C)CCN(c2c(-c3ccc(F)c(F)c3)cnc(Cl)c2[C@H](OC(C)(C)C)C(=O)O)CC1 [Example 208, (S)-2-(tert-Butoxy)-2-(2-chloro-5-(3,4-difluorophenyl)-4-(4,4-dimethylpiperidin-1-yl)pyridin-3-yl)acetic acid] | 7.46 |
| CC1(C)CCN(c2c(-c3ccc(OCCc4ccc(F)cc4)c(F)c3)c(N)nc(Cl)c2[C@H](OC(C)(C)C)C(=O)O)CC1 [Example 209, (S)-2-(6-Amino-2-chloro-4-(4,4-dimethylpiperidin-1-yl)-5-(3-fluoro-4-(4-fluorophenethoxy)phenyl)pyridin-3-yl)-2-(tert-butoxy)acetic acid] | 8.40 |
| CC1(C)CCN(c2c(-c3ccc(OCCc4ccc(F)cc4)c(F)c3)c(CN3CCC4(CCC4)CC3)nc(Cl)c2[C@H](OC(C)(C)C)C(=O)O)CC1 [Example 210, (S)-2-(6-((7-Azaspiro[3.5]nonan-7-yl)methyl)-2-chloro-4-(4,4-dimethylpiperidin-1-yl)-5-(3-fluoro-4-(4-fluorophenethoxy)phenyl)pyridin-3-yl)-2-(tert-butoxy)acetic acid] | 8.70 |
| CC1(C)CCN(c2c(-c3ccc(OCCc4ccc(F)cc4)cc3)cnc(Cl)c2[C@H](OC(C)(C)C)C(=O)O)CC1 [Example 211, (S)-2-(tert-Butoxy)-2-(2-chloro-4-(4,4-dimethylpiperidin-1-yl)-5-(4-(4-fluorophenethoxy)phenyl)pyridin-3-yl)acetic acid] | 8.52 |
| CC1(C)CCN(c2c(-c3ccc(OCCc4ccc(F)cc4)cc3)c(CO)nc(Cl)c2[C@H](OC(C)(C)C)C(=O)O)CC1 [Example 212, (S)-2-(tert-Butoxy)-2-(2-chloro-4-(4,4-dimethylpiperidin-1-yl)-5-(4-(4-fluorophenethoxy)phenyl)-6-(hydroxymethyl)pyridin-3-yl)acetic acid] | 9.52 |
| CN(Cc1nc(Cl)c([C@H](OC(C)(C)C)C(=O)O)c(N2CCC(C)(C)CC2)c1-c1ccc(OCCc2ccc(F)cc2)cc1)CC1CCOCC1 [Example 213, (S)-2-(tert-Butoxy)-2-(2-chloro-4-(4,4-dimethylpiperidin-1-yl)-5-(4-(4-fluorophenethoxy)phenyl)-6-((methyl((tetrahydro-2H-pyran-4-yl)methyl)amino)methyl)pyridin-3-yl)acetic acid] | 9.22 |
| CC1(C)CCN(c2c(-c3ccc(OCCc4ccc(F)cc4)c(F)c3)cnc(Cl)c2[C@H](OC(C)(C)C)C(=O)O)CC1 [Example 214, (S)-2-(tert-Butoxy)-2-(2-chloro-4-(4,4-dimethylpiperidin-1-yl)-5-(3-fluoro-4-(4-fluorophenethoxy)phenyl)pyridin-3-yl)acetic acid] | 8.05 |
| CC1(C)CCN(c2c(-c3ccc(OCCc4ccc(F)cc4)c(F)c3)cnc(C#N)c2[C@H](OC(C)(C)C)C(=O)O)CC1 [Example 217, (S)-2-(tert-Butoxy)-2-(2-cyano-4-(4,4-dimethylpiperidin-1-yl)-5-(3-fluoro-4-(4-fluorophenethoxy)phenyl)pyridin-3-yl)acetic acid] | 8.00 |
| Cc1ncc(-c2ccc(CNc3ncnc4c3oc3ccccc34)c(F)c2)c(N2CCC(C)(C)CC2)c1[C@H](OC(C)(C)C)C(=O)O [Example 218, (S)-2-(5-(4-((Benzofuro[3,2-d]pyrimidin-4-ylamino)methyl)-3-fluorophenyl)-4-(4,4-dimethylpiperidin-1-yl)-2-methylpyridin-3-yl)-2-(tert-butoxy)acetic acid] | 9.70 |
| Cc1ncc(-c2cc(F)c(CNc3ncnc4c3oc3ccccc34)c(F)c2)c(N2CCC(C)(C)CC2)c1[C@H](OC(C)(C)C)C(=O)O [Example 219, (S)-2-(5-(4-((Benzofuro[3,2-d]pyrimidin-4-ylamino)methyl)-3,5-difluorophenyl)-4-(4,4-dimethylpiperidin-1-yl)-2-methylpyridin-3-yl)-2-(tert-butoxy)acetic acid] | 8.70 |
| CN(Cc1ccc(-c2cnc(Cl)c([C@H](OC(C)(C)C)C(=O)O)c2N2CCC(C)(C)CC2)cc1)c1ncnc2c1oc1ccccc12 [Example 220, (S)-2-(5-(4-((Benzofuro[3,2-d]pyrimidin-4-yl(methyl)amino)methyl)phenyl)-2-chloro-4-(4,4-dimethylpiperidin-1-yl)pyridin-3-yl)-2-(tert-butoxy)acetic acid] | 8.70 |
| CC1(C)CCN(c2c(-c3ccc(CNc4ncnc5c4oc4ccccc45)c(F)c3)cnc(Cl)c2[C@H](OC(C)(C)C)C(=O)O)CC1 [Example 221, (S)-2-(5-(4-((Benzofuro[3,2-d]pyrimidin-4-ylamino)methyl)-3-fluorophenyl)-2-chloro-4-(4,4-dimethylpiperidin-1-yl)pyridin-3-yl)-2-(tert-butoxy)acetic acid] | 9.52 |
| CC1(C)CCN(c2c(-c3ccc(OCCc4ccc(F)cc4)cc3)cnc(C#N)c2[C@H](OC(C)(C)C)C(=O)O)CC1 [Example 222, (S)-2-(tert-Butoxy)-2-(2-cyano-4-(4,4-dimethylpiperidin-1-yl)-5-(4-(4-fluorophenethoxy)phenyl)pyridin-3-yl)acetic acid] | 8.10 |
| CC1(C)CCN(c2c(-c3ccccn3)cnc(Cl)c2[C@H](OC(C)(C)C)C(=O)O)CC1 [Example 223, (2S)-2-(tert-Butoxy)-2-[6′-chloro-4′-(4,4-dimethylpiperidin-1-yl)-[2, 3′-bipyridine]-5′-yl]acetic acid] | 7.82 |
| CC1(C)CCN(c2c(-c3ccc(OCCc4ccc(F)cc4)cn3)cnc(Cl)c2[C@H](OC(C)(C)C)C(=O)O)CC1 [Example 225, (2S)-2-(tert-Butoxy)-2-[6′-chloro-4′-(4,4-dimethylpiperidin-1-yl)-5-[2-(4-fluorophenyl)ethoxy]-[2, 3′-bipyridine]-5′-yl]acetic acid] | 9.00 |
| CCC(C)(C)O[C@H](C(=O)O)c1c(C)ncc(-c2ccc(OCCc3ccc(F)cc3)c(F)c2)c1N1CCC(C)(C)CC1 [Example 226, (S)-2-(4-(4,4-Dimethylpiperidin-1-yl)-5-(3-fluoro-4-(4-fluorophenethoxy)phenyl)-2-methylpyridin-3-yl)-2-(tert-pentyloxy)acetic acid] | 8.30 |
| COc1cnc(-c2cnc(C)c([C@H](OC(C)(C)C)C(=O)O)c2N2CCC(C)(C)CC2)nc1 [Example 228, (S)-2-(tert-Butoxy)-2-(4-(4,4-dimethylpiperidin-1-yl)-5-(5-methoxypyrimidin-2-yl)-2-methylpyridin-3-yl)acetic acid] | 7.28 |
| COc1ccc(-c2cnc(C)c([C@H](OC(C)(C)C)C(=O)O)c2N2CCC(C)(C)CC2)nc1 [Example 229, (S)-2-(tert-Butoxy)-2-(4′-(4,4-dimethylpiperidin-1-yl)-5-methoxy-6′-methyl-[2, 3′-bipyridin]-5′-yl)acetic acid] | 7.89 |
| Cc1nc(CO)c(-c2ccc(OCCc3ccc(F)cc3)c(F)c2)c(N2CCC(C)(C)CC2)c1[C@H](OC(C)(C)C)C(=O)O [Example 230, (S)-2-(tert-Butoxy)-2-(4-(4,4-dimethylpiperidin-1-yl)-5-(3-fluoro-4-(4-fluorophenethoxy)phenyl)-6-(hydroxymethyl)-2-methylpyridin-3-yl)acetic acid] | 8.52 |
| Cc1nc(CN2CCC3(CCC3)CC2)c(-c2ccc(OCCc3ccc(F)cc3)c(F)c2)c(N2CCC(C)(C)CC2)c1[C@H](OC(C)(C)C)C(=O)O [Example 231, (S)-2-(6-((7-Azaspiro[3.5]nonan-7-yl)methyl)-4-(4,4-dimethylpiperidin-1-yl)-5-(3-fluoro-4-(4-fluorophenethoxy)phenyl)-2-methylpyridin-3-yl)-2-(tert-butoxy)acetic acid] | 9.22 |
| Cc1nc(-c2cnc(C)c([C@H](OC(C)(C)C)C(=O)O)c2N2CCC(C)(C)CC2)ccc1OCCc1ccc(F)cc1 [Example 232, (S)-2-(tert-Butoxy)-2-(4′-(4,4-dimethylpiperidin-1-yl)-5-(4-fluorophenethoxy)-6, 6′-dimethyl-[2, 3′-bipyridin]-5′-yl)acetic acid] | 8.22 |
| Cc1ncc(-c2ncc(OCCc3ccc(F)cc3)cc2F)c(N2CCC(C)(C)CC2)c1[C@H](OC(C)(C)C)C(=O)O [Example 233, (S)-2-(tert-Butoxy)-2-(4′-(4,4-dimethylpiperidin-1-yl)-3-fluoro-5-(4-fluorophenethoxy)-6′-methyl-[2, 3′-bipyridin]-5′-yl)acetic acid] | 8.70 |
